Data set [1] relates to Wild type MDCKII cells. Kind of data set: Permeability in wild type MDCK cell lines (MDCK-WT). The settings on record: apical to basal, 10 μM test compound, 60 min, pH 7.4. It counts as in vitro ADME. As for the experimental part:
(§1) Wild type MDCKII cells were seeded onto an apical chamber 3 days prior to running the assay at a density of 2.3×10^5 cells per well. The integrity of cell monolayers was evaluated by examining the permeability of lucifer yellow assay using a Spectramax Gemini XS with excitation and emission at 426 nm and 538 nm respectively. Permeation of Lucifer Yellow should be ≤10×10^−6 cm/s for the experimental data to be accepted. The cell monolayers were preincubated in transport buffer (HBSS with CaCl2 and MgCl2)+25 mM HEPES, adjust to pH 7.4) at 37° C. or more than 20 min. Transport experiment was initiated by adding test compound solution (10 μM) to the apical chamber. Samples were obtained from basal chamber at 60 min, followed by addition of ice-cold acetonitrile containing internal standard. LC-MS/MS analysis was conducted as specified below. Standard calibration samples were prepared using the same matrix and analysed in the same manner. [table] […] Papp(cm/s)=(dCB/dt)×VB/(A×CA) dCB/dt is the slope of the cumulative concentration in basal side versus time VB is the volume of the basal compartment A is the area of the membrane surface area CA is the initial concentration in apical side

The target of data set [2] is T1, KDM5A protein (Homo sapiens, UniProt P29375).
T1 construct: purchased BPS Bioscience 50110
T1 sequence (P29375 whole entry): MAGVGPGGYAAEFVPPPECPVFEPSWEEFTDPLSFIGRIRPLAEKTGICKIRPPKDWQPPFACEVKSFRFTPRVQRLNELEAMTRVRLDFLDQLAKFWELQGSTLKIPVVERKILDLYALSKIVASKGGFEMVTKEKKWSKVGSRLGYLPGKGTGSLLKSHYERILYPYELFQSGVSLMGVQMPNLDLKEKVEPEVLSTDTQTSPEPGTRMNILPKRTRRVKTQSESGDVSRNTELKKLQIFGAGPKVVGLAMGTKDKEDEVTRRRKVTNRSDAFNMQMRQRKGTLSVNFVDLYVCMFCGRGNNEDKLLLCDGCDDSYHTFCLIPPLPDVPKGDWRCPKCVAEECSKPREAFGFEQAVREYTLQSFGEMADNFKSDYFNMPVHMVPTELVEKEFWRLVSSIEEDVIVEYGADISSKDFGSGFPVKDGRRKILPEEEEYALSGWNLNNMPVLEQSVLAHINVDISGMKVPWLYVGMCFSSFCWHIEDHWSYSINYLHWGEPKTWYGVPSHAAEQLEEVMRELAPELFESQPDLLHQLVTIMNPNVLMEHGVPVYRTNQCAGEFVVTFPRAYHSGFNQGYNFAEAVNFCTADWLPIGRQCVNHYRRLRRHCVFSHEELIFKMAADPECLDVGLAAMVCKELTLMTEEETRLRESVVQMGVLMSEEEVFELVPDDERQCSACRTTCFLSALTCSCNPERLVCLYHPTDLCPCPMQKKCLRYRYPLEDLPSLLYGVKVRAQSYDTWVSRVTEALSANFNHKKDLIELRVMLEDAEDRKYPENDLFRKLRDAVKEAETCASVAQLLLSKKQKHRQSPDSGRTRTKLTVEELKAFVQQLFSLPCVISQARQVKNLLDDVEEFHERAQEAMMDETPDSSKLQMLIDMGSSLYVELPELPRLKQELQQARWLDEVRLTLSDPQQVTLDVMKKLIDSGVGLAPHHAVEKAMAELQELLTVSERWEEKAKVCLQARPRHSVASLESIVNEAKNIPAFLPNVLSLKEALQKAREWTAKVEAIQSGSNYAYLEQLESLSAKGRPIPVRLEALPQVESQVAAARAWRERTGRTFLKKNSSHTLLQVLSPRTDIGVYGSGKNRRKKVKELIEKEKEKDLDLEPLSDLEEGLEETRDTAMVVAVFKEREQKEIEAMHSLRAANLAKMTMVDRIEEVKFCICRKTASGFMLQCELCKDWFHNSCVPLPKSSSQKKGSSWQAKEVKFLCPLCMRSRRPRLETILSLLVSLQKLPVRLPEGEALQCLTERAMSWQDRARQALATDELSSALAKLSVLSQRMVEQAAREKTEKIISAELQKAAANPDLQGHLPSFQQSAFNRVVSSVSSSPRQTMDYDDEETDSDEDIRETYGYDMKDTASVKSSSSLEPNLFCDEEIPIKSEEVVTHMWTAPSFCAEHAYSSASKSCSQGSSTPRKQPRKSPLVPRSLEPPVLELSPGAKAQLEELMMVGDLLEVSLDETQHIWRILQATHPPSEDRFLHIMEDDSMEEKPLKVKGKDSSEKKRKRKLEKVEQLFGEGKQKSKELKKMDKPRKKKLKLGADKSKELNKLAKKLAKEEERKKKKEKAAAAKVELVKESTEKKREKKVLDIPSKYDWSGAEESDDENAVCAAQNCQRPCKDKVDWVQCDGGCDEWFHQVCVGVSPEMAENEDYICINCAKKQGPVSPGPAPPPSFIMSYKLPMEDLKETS
Kind of data set: Biochemical KDM5A inhibition assay (HTRF). Conditions: read-out: IC50 value. As for the experimental part: Using 384-well white ProxiPlates (PerkinElmer), representative compounds were characterized for their inhibition of KDM5A using HTRF® technology (Cisbio Bioassays). Briefly, the test compounds, reference compounds, and DMSO control (typical compound concentration range 300 pM-10 μM, final assay concentration (FAC) of DMSO 0.5%) were added to 384-well plate by the Echo® acoustic dispensing platform (Labcyte). Three (3) μ1 of KDM5A protein (BPS Bioscience, Cat #50110)(10 or 20 nM FAC) in assay buffer (50 mM MES, 50 mM NaCl, 2 mM ascorbic acid, 0.01% v/v Tween 20, pH 6.5) was added to wells and plates were incubated for 10 minutes at room temperature. Then, 3 μl of biotin-labelled H3K4-me3 substrate (Anaspec Cat #AS-64357-1; 100 nM FAC), alpha-ketoglutaric acid ([…]) and Fe(II)SO4 (FAC 100 μM) in assay buffer was added and plates were incubated for 60 minutes at room temperature. The reaction was stopped with the addition of 6 μl of anti-H3-[…]-Eu(K) (Cisbio Bioassays Cat #61KA2KAE; 0.025 μg/ml FAC)+Streptavidin XL665 (Cisbio Bioassays Cat #610SAXLA; 0.5 μg/ml FAC) in HTRF detection buffer (Cisbio Bioassays Cat #62SDBRDD). The mixture was incubated for 90 minutes at room temperature before 340 nm excitation and measurement of dual emission at 620 nm and 665 nm. The raw data (a 665 nm and a 620 nm reading from each well) for individual assay plates were analyzed. The ratio of emissions was calculated using the following calculation: Ratio=(665 nm emission/620 nm emission)*10000. Using DMSO control (maximum response or 0% inhibition) and 1 μM reference control compound (minimum response or 100% inhibition), percentage inhibition values for each well were calculated using the median values of the minimum and maximum control wells and the following calculation: % Inhibition=(Well ratio-max control ratio)/(min control ratio-max control ratio)*100. Compound IC50 values were calculated from graphs of % inhibition plotted against compound concentration, using a four parameter curve fit.
On the technique in general: TR-FRET usually uses a lanthanide donor and a delayed reading to cut background.

Data set [3] can be described thus: Permeability in wild type MDCK cell lines (MDCK-WT). It counts as in vitro ADME. Conditions: dog, MDCK, pH 7.4, apical to basal, 10 μM test compound, read-out: MDCK-WT (Papp). As for the experimental part:
as §1

pIC50: −log10 of the molar value. Where two headings read alike, the source gives them in different places.

For the molecule `O=C(NC1CN(C(=O)c2cc(C3CC3)[nH]n2)C1)C1CC12CC2` (single isomer, unassigned) [EXAMPLE 105, N-(1-(5-cyclopropyl-1H-pyrazole-3-carbonyl)azetidin-3-yl)spiro[2.2]pentane-1-carboxamide], the “MDCK-WT (Papp) [10^−6 cm/s]” value in data set [1] is 6 10^−6 cm/s.

In the case of `CC(C)n1c(-c2cnn(CC3CC3)c2)nc2c(C(N)=O)ccnc2c1=O` [EXAMPLE 30, 2-(1-(Cyclopropylmethyl)-1H-pyrazol-4-yl)-3-isopropyl-4-oxo-3,4-dihydropyrido[3,2-d]pyrimidine-8-carboxamide], the negative-log IC50 (pIC50) in data set [2] (20 nM enzyme concentration) is 6.52. In data set [3], the Papp A→B at 60 min, 10 μM came to 37 ×10⁻⁶ cm/s. Turning to `CC(C)n1c(-c2ccccc2)nc2c(C(N)=O)ccnc2c1=O` [EXAMPLE 31, 3-isopropyl-4-oxo-2-phenyl-3,4-dihydropyrido[3,2-d]pyrimidine-8-carboxamide], in data set [2] (20 nM enzyme concentration), the negative logarithm of the IC50 (pIC50) was 6.70. The Papp A→B at 60 min, 10 μM in data set [3] was found to be 64 ×10⁻⁶ cm/s. Turning to `CC(C)c1cc(C(=O)N2C[C@@H]3[C@H](C2)[C@H]3C(=O)C2CC2)n[nH]1` [EXAMPLE 94, ((1R,5S,6r)-6-(cyclopropanecarbonyl)-3-azabicyclo[3.1.0]hexan-3-yl)(5-isopropyl-1H-pyrazol-3-yl)methanone], in data set [2] (* measured at 10 nM enzyme concentration), the pIC50 was 5.82. In addition, the Papp A→B at 60 min, 10 μM in data set [3] came to 68 ×10⁻⁶ cm/s. For the molecule `CC(C)c1c(-c2ccccc2)[nH]n2c(C#N)cnc2c1=O` [EXAMPLE 95, 7-Isopropyl-8-oxo-6-phenyl-5,8-dihydroimidazo[1,2-b]pyridazine-3-carbonitrile], the pIC50 in data set [2] (20 nM enzyme concentration) was 6.40. In addition, the Papp A→B at 60 min, 10 μM in data set [3] was determined as 66 ×10⁻⁶ cm/s. Take `CC(C)c1cc(C(=O)N2C[C@@H]3[C@H](C2)[C@H]3C(=O)N2CCCC2(C)C)n[nH]1` [EXAMPLE 131, (2,2-Dimethylpyrrolidin-1-yl)((1R,5S,6r)-3-(5-isopropyl-1H-pyrazole-3-carbonyl)-3-azabicyclo[3.1.0]hexan-6-yl)methanone]: in data set [1], the “MDCK-WT (Papp) [10^−6 cm/s]” value was 20 10^−6 cm/s. `Cc1onc([C@H]2[C@@H]3CN(C(=O)c4cc(C(C)C)[nH]n4)C[C@@H]32)c1-c1ccccc1` [EXAMPLE 134, (5-Isopropyl-1H-pyrazol-3-yl)((1R,5S,6r)-6-(5-methyl-4-phenylisoxazol-3-yl)-3-azabicyclo[3.1.0]hexan-3-yl)methanone]: in data set [1], the “MDCK-WT (Papp) [10^−6 cm/s]” value is 24 10^−6 cm/s.

As usually defined, the pIC50 is the negative decadic logarithm of the IC50, by convention in mol/L.

The values above are taken from US20220289751A1, “COMPOUND HAVING KDM5 INHIBITORY ACTIVITY AND PHARMACEUTICAL USE THEREOF” (ONO PHARMACEUTICAL CO., LTD., priority 2019, published 2022).
